These results are taken from patent US20180312539A1, “METHODS FOR PREPARING HIGH THROUGHPUT PEPTIDOMIMETICS, ORALLY BIOAVAILABLE DRUGS AND COMPOSITIONS CONTAINING SAME” (University of Southern California, priority 2011, published 2018).

A short description of series [1]: Membrane localization on PAMPA membrane. The series is classed as in vitro ADME. Particulars: 0.2 mM peptide, 0 and 15 min. The source says:
Membrane was set up as described above. […] Care was taken not to disrupt the membrane when samples were removed.
In order to study the mechanism of this enhanced permeation in more detail, Applicants quantitated the biotin-peptide conjugate's membrane localization.

The nature of series [2]: PAMPA (parallel artificial membrane permeability assay). The series is classed as in vitro ADME. To be noted: lauric acid in place of biotin. Here is the method:
PAMPA assays were set up following manufacturer's instructions. Briefly, 1% phosphatidyl choline (Sigma) was dissolved in dodecane (Sigma) at 65° C. for 3 min. The membrane was applied to each well as per manufacturer's instructions. […] 100 μL of sample was put into each donor well. The acceptor wells contained 300 μL of a 5% DMSO in PBS solution. Passive diffusion was allowed to occur at room temperature for 24 hrs. […] Absorbance at 215 nm was monitored. The area under the peptide peak was integrated.
The acceptor well contained 10 mM DTT as a reducing agent. Data was collected after 6, 12 and 24 hrs. Absorbance at 280 nm was analyzed. The following formula was used to calculate Log Pe: […]
Applicants employed a parallel artificial membrane permeability assay (PAMPA) that will allow for the rapid screening of peptide passive diffusion across a phospholipid bilayer. (Schmidt, et al. (2003) J. Millipore Corporation Application Note AN1729EN00.). In this assay, two chambers are separated by a phospholipid bilayer supported on an inert membrane. Applicants chose to initially focus Applicants examination on peptide ligands developed to bind with high affinity to the heterotrimeric G-proteins Gαi1*GDP and Gα12*GDP. Ja, W. W., et al. (2004) Biochemistry 43:9265; Millward, S. W., et al. (2007) ACS Chem. Biol. 2:625; Fiacco, S. et al. (2008) ChemBioChem 9:2200. These ligands included variations in sequence, size, overall charge, and polarity as well as comparing linear and cyclic peptides, end and biotinylation. […] According to classical methods of increasing permeability. Pinski, C. A., et al. (2001) Advanced Drug Delivery Reviews 46:3. Applicants postulated that the removal of hydrogen bond donors by N-methylation should further increase the permeability of this peptide.
For orientation: PAMPA measures passive passage across an artificial lipid membrane.

Consider `CCCCCCCCCCCC(=O)O` [Lauric acid], for which the membrane localization in series [1] was 27%. The “Log Pe” value in series [2] was −6.8.
